Drawing on paper PMC12133982, “Predominant T-cell epitopes of SARS-CoV-2 restricted by multiple prevalent HLA-B and HLA-C allotypes in Northeast Asia” (Frontiers in Immunology, 2025), this text covers IC50 and inhibition for 9 molecules.

By inhibition is commonly meant how much of the control response was suppressed.

Each structure is given as a SMILES string. “And” between values parts separate entries of the source, which are not always exact repeats. Equal entries are not always repeated. Peptide text beside a SMILES is read from it. Where only a bound is given, the exact number is not on record here.

One test deals with HLA-B5101 (Homo sapiens, UniProt P01889, A329T/A93T/A95T/C349S/D138N/D201E/D98Y/E187L/E204Q/E69T/G107R/I218V/K202T/L105A/L119W/N104I/Q94N/R106L/R155S/R180L/S101N/S121T/S35A/S48A/V306I/V36M/Y195H/Y91F). As to the kind of experiment: Competitive peptide binding assay, CIR-B5101. The conditions noted are these: HMy2.CIR-B5101 cells, reference Cy5-[…], class from inhibition at 5 and 15 μM, flow cytometry MFI; read-out: Binding affinity with HLA-B5101. The method, then:
(§1) Then, competitive peptide binding assays were performed.
A general note: Flow cytometry measures light scatter and fluorescence of single cells or particles in a stream.

The target of a further test is HLA-B5801 (Homo sapiens, UniProt P01889, A329T/C349S/D201E/D98Y/E176V/E187L/E204Q/E69T/G107R/I218V/I90N/K202T/L105A/L119I/N104I/N87E/Q89R/Q94S/R106L/R155S/R180L/R86G/S101N/S121R/S35A/S48A/T118I/V127L/V306I/V36M/Y140S/Y91M). Kind of test: Competitive peptide binding assay, CIR-B5801. The conditions noted are these: HMy2.CIR-B5801 cells, reference Cy5-[…], class from inhibition at 5 and 15 μM, flow cytometry MFI; read-out: Binding affinity with HLA-B5801. The method, then:
as §1

Another test addresses HLA-B3501 (Homo sapiens, UniProt P01889, A329T/A93T/A95T/C349S/D201E/D98Y/E176V/E187L/E204Q/E69T/I218V/K202T/L119I/Q94N/R155S/R180L/S121R/S35A/S48A/T118I/V127L/V306I/V36M/Y140S/Y91F). As to the kind of experiment: Competitive peptide binding assay, CIR-B3501. The conditions noted are these: HMy2.CIR-B3501 cells, reference Cy5-[…], class from inhibition at 5 and 15 μM, flow cytometry MFI; read-out: Binding affinity with HLA-B3501. The method, then:
as §1

A further test deals with HLA-B1501 (Homo sapiens, UniProt P01889, A329T/A93T/A95T/C349S/D201E/D98Y/E187L/E204Q/E69M/E70A/K202T/N87E/Q94N/R155S/R180W/S121R/S35A/S48A/V306I/V36M/Y140S/Y91S). Kind of test: Competitive peptide binding assay, CIR-B1501. The conditions noted are these: HMy2.CIR-B1501 cells, reference Cy5-[…], class from inhibition at 5 and 15 μM, flow cytometry MFI; read-out: Binding affinity with HLA-B1501. As for the experimental part: as §1

The target of a further test is HLA-B1502 (Homo sapiens, UniProt P01889, A329T/A93T/A95T/C349S/D201E/D98Y/E187L/E204Q/E69M/E70A/H137Y/K202T/L119I/Q94N/R155S/R180L/S121R/S35A/S48A/T118I/V306I/V36M/Y140S/Y91S). As to the kind of experiment: Competitive peptide binding assay, CIR-B1502. The conditions noted are these: HMy2.CIR-B1502 cells, reference Cy5-[…], class from inhibition at 5 and 15 μM, flow cytometry MFI; read-out: Binding affinity with HLA-B1502. As for the experimental part: as §1

A further test addresses HLA-B4601 (Homo sapiens, UniProt P01889, A329T/A93R/C349S/D201E/E100V/E187L/E204Q/E69M/E70A/I90K/K202T/N87E/R155S/R180W/S121R/S35A/S48A/V306I/V36M/Y140S). Kind of test: Competitive peptide binding assay, CIR-B4601. The conditions noted are these: for IC50: HMy2.CIR-B4601 cells, reference Cy5-[…], class from inhibition at 5 and 15 μM, flow cytometry MFI, read-out: Binding affinity with HLA-B4601; for inhibition at 5 µM: read-out: Inhibition % of Cy5-reference peptide binding, CIR-B4601, 5μM peptide; for inhibition at 15 µM: read-out: Inhibition % of Cy5-reference peptide binding, CIR-B4601, 15μM peptide. The method, then: as §1

The next test deals with HLA-B1302 (Homo sapiens, UniProt P01889, A65T/A93T/A95T/D138N/D201E/D98Y/E176V/E204Q/E69M/E70A/G107R/K202T/L105A/L119W/N104T/N87E/Q94N/R106L/R155S/R169L/R180L/S101N/S121T/S35A/S48T/V127L/V36M/Y140L/Y91S). Kind of test: Competitive peptide binding assay, CIR-B1302. The conditions noted are these: HMy2.CIR-B1302 cells, reference Cy5-MMWYWGPSL, class from inhibition at 5 and 15 μM, flow cytometry MFI; read-out: Binding affinity with HLA-B1302. As for the experimental part:
as §1

For a further test, the target named is HLA-B4001 (Homo sapiens, UniProt P01889, A65T/A93T/A95T/D138N/D98Y/E176V/E69K/N87E/Q56L/Q94N/R180L/S121R/S35A/S48T/T167S/V36M/W171L/Y33H/Y91S). As to the kind of experiment: Competitive peptide binding assay, CIR-B4001. The conditions noted are these: HMy2.CIR-B4001 cells, reference Cy5-[…], class from inhibition at 5 and 15 μM, flow cytometry MFI; read-out: Binding affinity with HLA-B4001. As for the experimental part: as §1

The target of the next test is HLA-B4403 (Homo sapiens, UniProt P01889, A223V/A65T/A93T/A95T/D201E/D98Y/E176V/E187L/E204Q/E69K/G107R/H137Y/K202T/L105A/L119I/N104T/N87E/Q56L/Q94N/R106L/R155S/R180L/S101N/S121R/S35A/S48T/T118I/V36M/W191S/Y140D/Y91S). Kind of test: Competitive peptide binding assay, CIR-B4403. The conditions noted are these: HMy2.CIR-B4403 cells, reference Cy5-CYMEAVAL, class from inhibition at 5 and 15 μM, flow cytometry MFI; read-out: Binding affinity with HLA-B4403. The method, then:
as §1

The target of the next test is T1, HLA-B0702 (Homo sapiens, UniProt P01889).
T1 construct: expressed in transfected cells; host or cells: HMy2.CIR
As to the kind of experiment: Competitive peptide binding assay, CIR-B0702. The conditions noted are these: HMy2.CIR-B0702 cells, reference Cy5-[…], class from inhibition at 5 and 15 μM, flow cytometry MFI. As for the experimental part:
as §1

Another test addresses HLA-B1301 (Homo sapiens, UniProt P01889, A65T/A93T/A95T/D138N/D201E/D98Y/E176V/E204Q/E69M/E70A/G107R/K202T/L105A/L119I/N104T/N87E/Q94N/R106L/R155S/R169L/R180L/S101N/S121R/S35A/S48T/T118I/V127L/V36M/Y140L/Y91S). As to the kind of experiment: Competitive peptide binding assay, CIR-B1301. The conditions noted are these: HMy2.CIR-B1301 cells, reference Cy5-[…], class from inhibition at 5 and 15 μM, flow cytometry MFI; read-out: Binding affinity with HLA-B1301. As for the experimental part:
as §1

`CC[C@H](C)[C@H](NC(=O)[C@@H]1CCCN1C(=O)[C@@H]1CCCN1C(=O)[C@@H](NC(=O)[C@H](CCCCN)NC(=O)[C@H](Cc1ccc(O)cc1)NC(=O)[C@@H](NC(=O)[C@H](CCC(N)=O)NC(=O)[C@@H](N)CCCCN)[C@@H](C)CC)[C@@H](C)O)C(=O)O` [Epitope Y82] (H-KQIYKTPPI-OH; N-terminus and C-terminus assumed): the IC50 on HLA-B5101 was > 15 µM; at HLA-B5801 it was 5 to 15 µM; at HLA-B3501, < 5 µM; at HLA-B1501, > 15 µM; at HLA-B1502 it was > 15 µM.
As to `CC(C)[C@H](NC(=O)[C@H](CC(N)=O)NC(=O)[C@H](Cc1ccc(O)cc1)NC(=O)[C@H](C)NC(=O)[C@@H](N)CCCCN)C(=O)N[C@H](C(=O)N[C@@H](CCC(N)=O)C(=O)N[C@@H](C)C(=O)N[C@@H](Cc1ccccc1)C(=O)O)[C@@H](C)O` [Epitope Y62] (H-KAYNVTQAF-OH), the IC50 is 5 to 15 µM on HLA-B5801; < 5 µM at HLA-B3501; 5 to 15 µM on HLA-B4601; > 15 µM at HLA-B1302; > 15 µM on HLA-B4001; 5 to 15 µM at HLA-B4403. Also, the values for the IC50 on HLA-B1501 and at HLA-B0702 were 5 to 15 µM and > 15 µM, respectively.
For the molecule `CC[C@H](C)[C@H](NC(=O)[C@H](Cc1ccc(O)cc1)NC(=O)[C@H](CCC(N)=O)NC(=O)[C@H](CCC(=O)O)NC(=O)[C@@H](N)Cc1ccc(O)cc1)C(=O)N[C@@H](CCCCN)C(=O)N[C@@H](Cc1c[nH]c2ccccc12)C(=O)N1CCC[C@H]1C(=O)N[C@@H](Cc1c[nH]c2ccccc12)C(=O)O` [Epitope Y230] (H-YEQYIKWPW-OH; N-terminus and C-terminus assumed), the IC50 on HLA-B5801 is 5 to 15 µM; at HLA-B3501, > 15 µM; on HLA-B4601 it was > 15 µM; at HLA-B4001, > 15 µM; on HLA-B4403 it was < 5 µM; on HLA-B1501, > 15 µM. Moreover, the IC50 at HLA-B1502 is > 15 µM.
For the molecule `CC[C@H](C)[C@H](NC(=O)[C@H](CC(C)C)NC(=O)[C@H](CS)NC(=O)CNC(=O)[C@H](C)NC(=O)[C@H](CCCNC(=N)N)NC(=O)[C@@H](NC(=O)[C@H](CCC(N)=O)NC(=O)[C@@H](N)Cc1ccccc1)[C@@H](C)O)C(=O)O` [Epitope Y89] (H-FQTRAGCLI-OH; N-terminus and C-terminus assumed), the IC50 is > 15 µM at HLA-B5801; > 15 µM at HLA-B3501; > 15 µM at HLA-B4601; < 5 µM and > 15 µM on HLA-B1302; 5 to 15 µM at HLA-B4001; > 15 µM at HLA-B4403. Moreover, the IC50 on HLA-B1501 was > 15 µM.
Take `CC(C)C[C@H](NC(=O)[C@@H](NC(=O)[C@@H](NC(=O)CNC(=O)[C@H](CCC(N)=O)NC(=O)[C@@H]1CCCN1C(=O)[C@H](CC(C)C)NC(=O)[C@H](CCC(N)=O)NC(=O)[C@@H](N)CC(C)C)[C@@H](C)O)[C@@H](C)O)C(=O)O` [Epitope Y61] (H-LQLPQGTTL-OH; N-terminus and C-terminus assumed): the IC50 on HLA-B5101 is 5 to 15 µM; at HLA-B5801 it was 5 to 15 µM; at HLA-B3501 it was < 5 µM; on HLA-B4601 it was > 15 µM. In addition, the inhibition at 5 µM on HLA-B4601 amounted to 20%. The inhibition at 15 µM at HLA-B4601 is 33.6%.
Regarding `CC(C)[C@H](NC(=O)[C@@H](NC(=O)[C@@H](N)Cc1ccccc1)C(C)C)C(=O)N[C@@H](CO)C(=O)N[C@H](C(=O)NCC(=O)N[C@@H](Cc1ccc(O)cc1)C(=O)N[C@@H](Cc1c[nH]cn1)C(=O)N[C@@H](Cc1ccccc1)C(=O)O)[C@@H](C)O` [Epitope Y167] (H-FVVSTGYHF-OH; N-terminus and C-terminus assumed), the IC50 on HLA-B5801 is > 15 µM; on HLA-B3501 it was 5 to 15 µM; at HLA-B4601, 5 to 15 µM; on HLA-B4403 it was > 15 µM; at HLA-B1501 it was > 15 µM; at HLA-B0702, > 15 µM. Also, the IC50 on HLA-B1502 is 5 to 15 µM; on HLA-B1301, > 15 µM.
Consider `CC[C@H](C)[C@H](NC(=O)[C@@H](NC(=O)[C@H](CC(N)=O)NC(=O)[C@H](CCCNC(=N)N)NC(=O)[C@H](CCCCN)NC(=O)[C@@H](NC(=O)[C@H](Cc1ccc(O)cc1)NC(=O)[C@H](C)NC(=O)[C@@H](N)Cc1ccccc1)[C@@H](C)O)C(C)C)C(=O)O` [Epitope Y276] (H-FAYTKRNVI-OH; N-terminus and C-terminus assumed), for which the IC50 at HLA-B5101 is 5 to 15 µM; at HLA-B3501 it was > 15 µM; on HLA-B1501, > 15 µM; at HLA-B1502 it was > 15 µM; on HLA-B1301, < 5 µM.
As for `CC[C@H](C)[C@H](NC(=O)[C@H](C)NC(=O)[C@H](C)NC(=O)[C@H](CC(N)=O)NC(=O)[C@H](CC(N)=O)NC(=O)[C@H](C)NC(=O)[C@@H]1CCCN1C(=O)[C@@H](N)CC(N)=O)C(=O)N[C@H](C(=O)O)C(C)C` [Epitope Y18] (H-NPANNAAIV-OH; N-terminus and C-terminus assumed), the IC50 at HLA-B4601 is > 15 µM; on HLA-B4001, > 15 µM; on HLA-B4403, > 15 µM; on HLA-B1501, 5 to 15 µM. Further, on HLA-B4601, the inhibition at 5 µM turned out to be 12.5%. The inhibition at 15 µM on HLA-B4601 was found to be 42.5%.
On to `CC(C)C[C@H](NC(=O)[C@H](CCC(N)=O)NC(=O)[C@@H](NC(=O)[C@H](CS)NC(=O)[C@H](Cc1ccccc1)NC(=O)[C@H](CO)NC(=O)CNC(=O)[C@H](Cc1ccc(O)cc1)NC(=O)[C@H](CCC(N)=O)NC(=O)[C@@H](N)CC(C)C)[C@@H](C)O)C(=O)O` [Epitope Y88] (H-LQYGSFCTQL-OH; N-terminus and C-terminus assumed), for which the IC50 on HLA-B5101 was > 15 µM; at HLA-B5801, > 15 µM; on HLA-B3501, 5 to 15 µM; at HLA-B1501 it was > 15 µM.
